Data published in ChEMBL document CHEMBL6092160, “Discovery of novel third generation P-glycoprotein inhibitors bearing an azo moiety with MDR-reversing effect” (Eur J Med Chem, 2024).
Counter-ions that a name gives are not always drawn.

Tests used:
K562/A02 [1] = test: Cytotoxicity against human K562/A02 cells over expressing P-gp at 20 uM incubated for 72 hrs by CCK-8 assay; assay type: toxicity, cell-based; conditions: k562/a02, 72 h
K562/A02 [2] = test: Reversal of multi-drug resistance in human K562/A02 cells assessed as decrease in adriamycin IC50 preincubated with compound followed by ADR addition for 48 hrs; assay type: functional, cell-based
[3] = target: T1, ATP-dependent translocase ABCB1 (Homo sapiens, UniProt P08183); test: Inhibition of P-glycoprotein in human K562/A02 cells assessed as accumulation of rhodamine incubated for 4 hrs by flow cytometric analysis; assay type: cell-based; conditions: k562/a02, 4 h, at 0.5 to 8 µM, dose 0.5-8 µM
T1 sequence (P08183 whole entry): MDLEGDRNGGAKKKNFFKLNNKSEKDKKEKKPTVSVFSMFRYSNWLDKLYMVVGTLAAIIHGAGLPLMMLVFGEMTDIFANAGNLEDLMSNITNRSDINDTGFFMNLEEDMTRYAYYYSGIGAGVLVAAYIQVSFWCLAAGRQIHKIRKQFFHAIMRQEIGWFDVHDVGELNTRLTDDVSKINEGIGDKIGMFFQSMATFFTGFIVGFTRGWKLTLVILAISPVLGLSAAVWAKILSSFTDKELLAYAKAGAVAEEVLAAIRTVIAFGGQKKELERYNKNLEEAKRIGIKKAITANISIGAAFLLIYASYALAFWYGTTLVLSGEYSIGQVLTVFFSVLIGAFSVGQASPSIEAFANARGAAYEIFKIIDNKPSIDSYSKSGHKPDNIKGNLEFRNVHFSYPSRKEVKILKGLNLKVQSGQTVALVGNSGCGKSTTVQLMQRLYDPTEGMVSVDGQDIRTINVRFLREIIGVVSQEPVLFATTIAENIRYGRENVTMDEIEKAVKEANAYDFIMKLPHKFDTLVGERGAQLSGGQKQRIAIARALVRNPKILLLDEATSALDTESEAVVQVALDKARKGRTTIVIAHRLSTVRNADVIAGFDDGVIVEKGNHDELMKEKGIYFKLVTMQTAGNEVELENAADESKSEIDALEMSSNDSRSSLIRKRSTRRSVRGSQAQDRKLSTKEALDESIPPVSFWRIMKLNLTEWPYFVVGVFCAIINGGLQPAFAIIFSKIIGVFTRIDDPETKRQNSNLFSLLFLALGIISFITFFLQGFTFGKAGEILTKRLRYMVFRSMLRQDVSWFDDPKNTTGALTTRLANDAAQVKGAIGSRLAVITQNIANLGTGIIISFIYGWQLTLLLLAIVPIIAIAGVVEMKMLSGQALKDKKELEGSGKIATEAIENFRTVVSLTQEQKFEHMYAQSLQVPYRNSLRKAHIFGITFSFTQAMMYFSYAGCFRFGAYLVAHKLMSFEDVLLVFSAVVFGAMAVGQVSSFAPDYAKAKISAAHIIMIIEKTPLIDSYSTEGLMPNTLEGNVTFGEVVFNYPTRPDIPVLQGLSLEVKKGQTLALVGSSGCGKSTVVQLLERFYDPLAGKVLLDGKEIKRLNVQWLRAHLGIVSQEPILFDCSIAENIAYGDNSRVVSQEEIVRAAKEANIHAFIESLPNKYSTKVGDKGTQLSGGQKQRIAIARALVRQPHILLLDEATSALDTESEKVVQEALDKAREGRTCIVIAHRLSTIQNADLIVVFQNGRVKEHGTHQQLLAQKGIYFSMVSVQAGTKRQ

K562/A02 [4] = test: Effect on P-glycoprotein expression at mRNA level in human K562/A02 cells at 0.5 to 8.0 uM by q-PCR analysis; assay type: functional, cell-based; conditions: dose 0.5-8 µM
K562/A02 [5] = test: Effect on P-glycoprotein expression at protein level in human K562/A02 cells at 0.5 to 8.0 uM incubated for 24 hrs by Western blot analysis; assay type: functional, cell-based; conditions: dose 0.5-8 µM
[6] = target: T1, ATP-dependent translocase ABCB1; test: Induction of thermal stabilization of P-glycoprotein in human K562/A02 cells at 50 uM under 25 to 61 degreeC incubated for 1 hrs by CETSA based Western blot analysis; assay type: cell-based; conditions: k562/a02, 1 h
K562/A02 [7] = test: Antiproliferative activity against human K562/A02 cells assessed as reduction in cell viability incubated for 72 hrs by CCK-8 assay; assay type: functional, cell-based; conditions: K562/A02, 72 h

| Compound | Activity (K562/A02 [1]) | further results |
| --- | --- | --- |
| COc1cc2c(cc1OC)CN(CCc1ccc(/N=N/c3ccccc3NC(=O)c3cc(OC)c(OC)c(OC)c3)cc1)CC2 | Non-toxic |  |
| COc1ccc(C(=O)Nc2ccccc2/N=N/c2ccc(CCN3CCc4cc(OC)c(OC)cc4C3)cc2)cc1OC | Non-toxic |  |
| COc1cc2c(cc1OC)CN(CCc1ccc(/N=N/c3ccccc3NC(=O)c3ccc(C)c(C)c3)cc1)CC2 | Non-toxic |  |
| COc1cc2c(cc1OC)CN(CCc1ccc(NC(=O)c3ccccc3/N=N/c3ccccc3)cc1)CC2 | Non-toxic |  |
| COc1cc2c(cc1OC)CN(CCc1ccc(/N=N/c3ccccc3NC(=O)c3ccccc3[N+](=O)[O-])cc1)CC2 | Non-toxic |  |
| COc1cc2c(cc1OC)CN(CCc1ccc(/N=N/c3ccccc3NC(=O)c3ccc([N+](=O)[O-])cc3)cc1)CC2 | Non-toxic |  |
| COc1cc2c(cc1OC)CN(CCc1ccc(/N=N/c3ccccc3NC(=O)c3ccccc3Cl)cc1)CC2 | Non-toxic |  |
| COc1cc2c(cc1OC)CN(CCc1ccc(/N=N/c3ccccc3NC(=O)c3ccc(F)c(F)c3)cc1)CC2 | Non-toxic |  |
| COc1cccc(C(=O)Nc2ccccc2/N=N/c2ccc(CCN3CCc4cc(OC)c(OC)cc4C3)cc2)c1 | Non-toxic |  |
| COc1cc2c(cc1OC)CN(CCc1ccc(/N=N/c3ccccc3NC(=O)c3ccc(Cl)cc3)cc1)CC2 | Non-toxic |  |
| COc1cc2c(cc1OC)CN(CCc1ccc(/N=N/c3ccccc3NC(=O)c3ccc(Cl)c(Cl)c3)cc1)CC2 | Non-toxic |  |
| COc1cc2c(cc1OC)CN(CCc1ccc(NC(=O)c3ccccc3/N=N/c3cccc(Cl)c3)cc1)CC2 | Non-toxic |  |
| COc1cc2c(cc1OC)CN(CCc1ccc(/N=N/c3ccccc3NC(=O)c3ccccc3OC)cc1)CC2 | Non-toxic | EC50 (K562/A02 [2]): 120 nM; inhibition (INH) [3]: Dose-dependent-effect; Activity (K562/A02 [4]): Active; Little Effect Of Compound Observed; Activity (K562/A02 [5]): Active; Little Effect Of Compound Observed; Activity [6]: Active |
| COc1cc2c(cc1OC)CN(CCc1ccc(NC(=O)c3ccccc3/N=N/c3ccc(C)cc3)cc1)CC2 | Non-toxic |  |
| COc1cccc2c1C(=O)c1c(O)c3c(c(O)c1C2=O)C[C@@](O)(C(=O)CO)C[C@@H]3O[C@H]1C[C@H](N)[C@H](O)[C@H](C)O1 [DOXORUBICIN HYDROCHLORIDE] |  | IC50 (K562/A02 [7]): 2160 nM |
| COc1cc2c(cc1OC)CN(CCc1ccc(/N=N/c3ccccc3NC(=O)c3cccc(Cl)c3)cc1)CC2 | Non-toxic |  |
| COc1ccccc1/N=N/c1ccccc1C(=O)Nc1ccc(CCN2CCc3cc(OC)c(OC)cc3C2)cc1 | Non-toxic |  |
| COc1cc2c(cc1OC)CN(CCc1ccc(/N=N/c3ccccc3NC(=O)c3ccc(C)cc3)cc1)CC2 | Non-toxic |  |
| COc1cc2c(cc1OC)CN(CCc1ccc(NC(=O)c3ccccc3/N=N/c3ccc(Cl)cc3)cc1)CC2 | Non-toxic |  |
| COc1ccc(C(=O)Nc2ccccc2C(=O)Nc2ccc(CCN3CCc4cc(OC)c(OC)cc4C3)cc2)cc1OC |  | EC50 (K562/A02 [2]): 29.4 nM |
| COc1cc2c(cc1OC)CN(CCc1ccc(/N=N/c3ccccc3NC(=O)c3ccccc3)cc1)CC2 | Non-toxic |  |
| COc1cc2c(cc1OC)CN(CCc1ccc(/N=N/c3ccccc3NC(=O)c3ccc(C(C)(C)C)cc3)cc1)CC2 | Non-toxic |  |
| COc1ccc(C(=O)Nc2ccccc2/N=N/c2ccc(CCN3CCc4cc(OC)c(OC)cc4C3)cc2)cc1 | Non-toxic |  |
| COc1cc2c(cc1OC)CN(CCc1ccc(/N=N/c3ccccc3NC(=O)c3cccc([N+](=O)[O-])c3)cc1)CC2 | Non-toxic |  |
